Assay results published in ChEMBL document CHEMBL1201862, “PubChem BioAssay data set” (2004).
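Values below derive from 48-hour exposures of cells grown in 96-well plates, with endpoints linearly interpolated between the two concentrations bracketing the appropriate inhibition level. Abbreviation: GI50, concentration required for 50% inhibition of growth.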 Active and inactive are the calls of the source. Cut-off read from the data, not from the text of the source: active = GI50 up to about 1.1 µM and inactive = higher.

How the values were obtained:
Assay in all cases: NCI anticancer screen, dose series, 48 h
HL-60 = tested on: HL-60
SF-268 = tested on: SF-268
CAKI-1 = tested on: CAKI-1
SK-OV-3 = tested on: SK-OV-3
NCI/ADR-RES = tested on: NCI/ADR-RES
TK-10 = tested on: TK-10
NCI-H23 = tested on: NCI-H23
PC-3 = tested on: PC-3
HOP-92 = tested on: HOP-92
OVCAR-5 = tested on: OVCAR-5
SK-MEL-2 = tested on: SK-MEL-2
OVCAR-8 = tested on: OVCAR-8
SK-MEL-5 = tested on: SK-MEL-5
DU-145 = tested on: DU-145
MDA-MB-435 = tested on: MDA-MB-435
MDA-MB-231 = tested on: MDA-MB-231
SF-295 = tested on: SF-295
NCI-H522 = tested on: NCI-H522
NCI-H460 = tested on: NCI-H460
M14 = tested on: M14
HCC 2998 = tested on: HCC 2998
K562 = tested on: K562
HCT-15 = tested on: HCT-15
SNB-19 = tested on: SNB-19
CCRF-CEM = tested on: CCRF-CEM
RXF 393 = tested on: RXF 393
HT-29 = tested on: HT-29
SF-539 = tested on: SF-539
Hs-578T = tested on: Hs-578T
UO-31 = tested on: UO-31
ACHN = tested on: ACHN
KM12 = tested on: KM12
OVCAR-3 = tested on: OVCAR-3
U-251 = tested on: U-251
LOX IMVI = tested on: LOX IMVI
MOLT-4 = tested on: MOLT-4
IGROV-1 = tested on: IGROV-1
SNB-75 = tested on: SNB-75
UACC-62 = tested on: UACC-62
SK-MEL-28 = tested on: SK-MEL-28
SR = tested on: SR
786-0 = tested on: 786-0
HCT-116 = tested on: HCT-116
SN12C = tested on: SN12C
UACC-257 = tested on: UACC-257
MDA-N = tested on: MDA-N
OVCAR-4 = tested on: OVCAR-4
RPMI-8226 = tested on: RPMI-8226
Malme-3M = tested on: Malme-3M
MCF7 = tested on: MCF7
T47D = tested on: T47D
A498 = tested on: A498
COLO 205 = tested on: COLO 205
EKVX = tested on: EKVX
BT-549 = tested on: BT-549
HOP-62 = tested on: HOP-62
NCI-H226 = tested on: NCI-H226
A549 = tested on: A549
SW-620 = tested on: SW-620

**Q.** For `O=C1NC(=S)NC(=O)C1=Cc1cccc2cc3ccccc3cc12`, which GI50 (HL-60) is on record?
**A.** The GI50 was 1710 nM (inactive).

**Q.** What about the GI50 (SF-268) of the same compound?
**A.** Its GI50 is 2060 nM (inactive).

**Q.** What about the GI50 (CAKI-1) of the same compound?
**A.** The GI50 was 2030 nM (inactive).

**Q.** And the GI50 (SK-OV-3)?
**A.** The GI50 was 2830 nM (inactive).

**Q.** And the GI50 (NCI/ADR-RES)?
**A.** Its GI50 is 2220 nM (inactive).

**Q.** What about the GI50 (TK-10) of the same compound?
**A.** The GI50 was 1890 nM (inactive).

**Q.** What about the GI50 (NCI-H23) of the same compound?
**A.** Its GI50 is 1870 nM (inactive).

**Q.** And the GI50 (PC-3)?
**A.** The GI50 was 1740 nM (inactive).

**Q.** And the GI50 (HOP-92)?
**A.** Its GI50 is 1660 nM (inactive).

**Q.** And the GI50 (OVCAR-5)?
**A.** Its GI50 is 2300 nM (inactive).

**Q.** And the GI50 (SK-MEL-2)?
**A.** The GI50 was 1920 nM (inactive).

**Q.** What about the GI50 (OVCAR-8) of the same compound?
**A.** The GI50 was 1860 nM (inactive).

**Q.** What about the GI50 (SK-MEL-5) of the same compound?
**A.** The GI50 was 2070 nM (inactive).

**Q.** What about the GI50 (DU-145) of the same compound?
**A.** The GI50 was 1470 nM (inactive).

**Q.** And the GI50 (MDA-MB-435)?
**A.** The GI50 was 2120 nM (inactive).

**Q.** What about the GI50 (MDA-MB-231) of the same compound?
**A.** The GI50 was 2010 nM (inactive).

**Q.** What about the GI50 (SF-295) of the same compound?
**A.** The GI50 was 2460 nM (inactive).

**Q.** And the GI50 (NCI-H522)?
**A.** The GI50 was 1910 nM (inactive).

**Q.** What about the GI50 (NCI-H460) of the same compound?
**A.** Its GI50 is 2120 nM (inactive).

**Q.** What about the GI50 (M14) of the same compound?
**A.** Its GI50 is 2240 nM (inactive).

**Q.** And the GI50 (HCC 2998)?
**A.** Its GI50 is 2040 nM (inactive).

**Q.** And the GI50 (K562)?
**A.** Its GI50 is 2070 nM (inactive).

**Q.** What about the GI50 (HCT-15) of the same compound?
**A.** Its GI50 is 1680 nM.

**Q.** What about the GI50 (SNB-19) of the same compound?
**A.** Its GI50 is 2280 nM (inactive).

**Q.** What about the GI50 (CCRF-CEM) of the same compound?
**A.** Its GI50 is 378 nM (active).

**Q.** And the GI50 (RXF 393)?
**A.** The GI50 was 1660 nM (inactive).

**Q.** What about the GI50 (HT-29) of the same compound?
**A.** Its GI50 is 2130 nM (inactive).

**Q.** And the GI50 (SF-539)?
**A.** Its GI50 is 1580 nM (inactive).

**Q.** And the GI50 (Hs-578T)?
**A.** Its GI50 is 2970 nM (inactive).

**Q.** And the GI50 (UO-31)?
**A.** The GI50 was 1950 nM (inactive).

**Q.** What about the GI50 (ACHN) of the same compound?
**A.** The GI50 was 1950 nM (inactive).

**Q.** What about the GI50 (KM12) of the same compound?
**A.** Its GI50 is 1980 nM (inactive).

**Q.** What about the GI50 (OVCAR-3) of the same compound?
**A.** The GI50 was 1760 nM (inactive).

**Q.** And the GI50 (U-251)?
**A.** The GI50 was 1690 nM (inactive).

**Q.** What about the GI50 (LOX IMVI) of the same compound?
**A.** The GI50 was 1670 nM (inactive).

**Q.** What about the GI50 (MOLT-4) of the same compound?
**A.** The GI50 was 2120 nM (inactive).

**Q.** And the GI50 (IGROV-1)?
**A.** The GI50 was 1670 nM (inactive).

**Q.** And the GI50 (SNB-75)?
**A.** The GI50 was 1590 nM (inactive).

**Q.** What about the GI50 (UACC-62) of the same compound?
**A.** Its GI50 is 1870 nM (inactive).

**Q.** And the GI50 (SK-MEL-28)?
**A.** Its GI50 is 2570 nM (inactive).

**Q.** What about the GI50 (SR) of the same compound?
**A.** The GI50 was 1440 nM (inactive).

**Q.** And the GI50 (786-0)?
**A.** The GI50 was 1610 nM (inactive).

**Q.** And the GI50 (HCT-116)?
**A.** Its GI50 is 1950 nM (inactive).

**Q.** And the GI50 (SN12C)?
**A.** Its GI50 is 2320 nM (inactive).

**Q.** And the GI50 (UACC-257)?
**A.** Its GI50 is 1780 nM (inactive).

**Q.** What about the GI50 (MDA-N) of the same compound?
**A.** The GI50 was 2190 nM (inactive).

**Q.** What about the GI50 (OVCAR-4) of the same compound?
**A.** The GI50 was 2280 nM (inactive).

**Q.** What about the GI50 (RPMI-8226) of the same compound?
**A.** Its GI50 is 1240 nM (inactive).

**Q.** And the GI50 (Malme-3M)?
**A.** The GI50 was 2110 nM (inactive).

**Q.** And the GI50 (MCF7)?
**A.** Its GI50 is 1800 nM (inactive).

**Q.** And the GI50 (T47D)?
**A.** The GI50 was 900 nM (active).

**Q.** And the GI50 (A498)?
**A.** Its GI50 is 1970 nM (inactive).

**Q.** And the GI50 (COLO 205)?
**A.** Its GI50 is 1880 nM (inactive).

**Q.** And the GI50 (EKVX)?
**A.** Its GI50 is 2910 nM (inactive).

**Q.** What about the GI50 (BT-549) of the same compound?
**A.** The GI50 was 1710 nM (inactive).

**Q.** And the GI50 (HOP-62)?
**A.** The GI50 was 1840 nM (inactive).

**Q.** And the GI50 (NCI-H226)?
**A.** The GI50 was 2030 nM (inactive).

**Q.** What about the GI50 (A549) of the same compound?
**A.** Its GI50 is 3080 nM (inactive).

**Q.** What about the GI50 (SW-620) of the same compound?
**A.** Its GI50 is 2580 nM (inactive).

**Q.** What does the source list for `COc1cccc(Nc2nc(N)nc(N)c2N=O)c1`?
**A.** GI50 (HL-60): 19100 nM (inactive); GI50 (SF-268): 14700 nM (inactive); GI50 (CAKI-1): 11300 nM (inactive); GI50 (SK-OV-3): 29200 nM (inactive); GI50 (NCI/ADR-RES): 17100 nM (inactive); GI50 (TK-10): 19800 nM (inactive); GI50 (NCI-H23): 15300 nM (inactive); GI50 (PC-3): 10200 nM (inactive); GI50 (HOP-92): 7140 nM (inactive); GI50 (OVCAR-5): 37800 nM (inactive); GI50 (SK-MEL-2): 31000 nM (inactive); GI50 (OVCAR-8): 16100 nM (inactive); GI50 (SK-MEL-5): 18700 nM (inactive); GI50 (DU-145): 13200 nM (inactive); GI50 (MDA-MB-435): 16900 nM (inactive); GI50 (MDA-MB-231): 28500 nM (inactive); GI50 (SF-295): 27000 nM (inactive); GI50 (NCI-H522): 8650 nM (inactive); GI50 (NCI-H460): 13600 nM (inactive); GI50 (M14): 30800 nM (inactive); GI50 (HCC 2998): 17400 nM (inactive); GI50 (K562): 31300 nM (inactive); GI50 (HCT-15): 22000 nM; GI50 (SNB-19): 38600 nM (inactive); GI50 (CCRF-CEM): 23200 nM (inactive); GI50 (RXF 393): 28600 nM (inactive); GI50 (HT-29): 21800 nM (inactive); GI50 (SF-539): 15300 nM (inactive); GI50 (Hs-578T): 14500 nM (inactive); GI50 (UO-31): 9400 nM (inactive); GI50 (ACHN): 17300 nM (inactive); GI50 (KM12): 29100 nM (inactive); GI50 (OVCAR-3): 15600 nM (inactive); GI50 (U-251): 31800 nM (inactive); GI50 (LOX IMVI): 15100 nM (inactive); GI50 (MOLT-4): 7240 nM (inactive); GI50 (IGROV-1): 2380 nM (inactive); GI50 (SNB-75): 10800 nM (inactive); GI50 (UACC-62): 15500 nM (inactive); GI50 (SK-MEL-28): 22000 nM (inactive); GI50 (SR): 18500 nM (inactive); GI50 (786-0): 19000 nM (inactive); GI50 (HCT-116): 18400 nM (inactive); GI50 (SN12C): 17800 nM (inactive); GI50 (UACC-257): 21300 nM (inactive); GI50 (MDA-N): 30800 nM (inactive); GI50 (OVCAR-4): 31800 nM (inactive); GI50 (RPMI-8226): 16900 nM (inactive); GI50 (Malme-3M): 29200 nM (inactive); GI50 (MCF7): 3800 nM (inactive); GI50 (T47D): 2120 nM (inactive); GI50 (A498): 21700 nM (inactive); GI50 (COLO 205): 24400 nM (inactive); GI50 (EKVX): 19400 nM (inactive); GI50 (BT-549): 28000 nM (inactive); GI50 (HOP-62): 28800 nM (inactive); GI50 (NCI-H226): 22500 nM (inactive); GI50 (A549): 31000 nM (inactive); GI50 (SW-620): 31300 nM (inactive)
